IC50, Activity and inhibition data for two molecules are collected here from ChEMBL document CHEMBL5661976 (Cancer Res, 2007).

pIC50: −log10 of the molar value. Active and inactive are the calls of the source. The rule behind the calls is not given here.

Assay [1] addresses Receptor tyrosine-protein kinase erbB-2 (Mus musculus, UniProt P70424). The assay is described as follows: Inhibition of ERBB2 expressed in mouse NIH3T3 cells. The format is cell-based.
The test system of a further assay is NCI-H3255. The assay is described as follows: Induction of apoptosis in human NCI-H3255 cells assessed as increase in cleavage of PARP at 1 micromol/L incubated for 72 hrs by Western blotting analysis. The format is functional, cell-based. Particulars: dose 1.0 µmol/L. A general note: Immunoblotting shows a protein as a band on a membrane.
For assay [2], the target named is Receptor tyrosine-protein kinase erbB-3 (Homo sapiens) (UniProt P21860). Kind of assay: Inhibition of ERBB3 phosphorylation in human HCC827 cells expressing GFP at 1 to 10000 nmol/L incubated for 12 hrs by Western blotting analysis. The class given is cell-based. Particulars: dose 1-10000 nmol/L.
Receptor tyrosine-protein kinase erbB-3 (Homo sapiens), sequence (P21860 whole entry): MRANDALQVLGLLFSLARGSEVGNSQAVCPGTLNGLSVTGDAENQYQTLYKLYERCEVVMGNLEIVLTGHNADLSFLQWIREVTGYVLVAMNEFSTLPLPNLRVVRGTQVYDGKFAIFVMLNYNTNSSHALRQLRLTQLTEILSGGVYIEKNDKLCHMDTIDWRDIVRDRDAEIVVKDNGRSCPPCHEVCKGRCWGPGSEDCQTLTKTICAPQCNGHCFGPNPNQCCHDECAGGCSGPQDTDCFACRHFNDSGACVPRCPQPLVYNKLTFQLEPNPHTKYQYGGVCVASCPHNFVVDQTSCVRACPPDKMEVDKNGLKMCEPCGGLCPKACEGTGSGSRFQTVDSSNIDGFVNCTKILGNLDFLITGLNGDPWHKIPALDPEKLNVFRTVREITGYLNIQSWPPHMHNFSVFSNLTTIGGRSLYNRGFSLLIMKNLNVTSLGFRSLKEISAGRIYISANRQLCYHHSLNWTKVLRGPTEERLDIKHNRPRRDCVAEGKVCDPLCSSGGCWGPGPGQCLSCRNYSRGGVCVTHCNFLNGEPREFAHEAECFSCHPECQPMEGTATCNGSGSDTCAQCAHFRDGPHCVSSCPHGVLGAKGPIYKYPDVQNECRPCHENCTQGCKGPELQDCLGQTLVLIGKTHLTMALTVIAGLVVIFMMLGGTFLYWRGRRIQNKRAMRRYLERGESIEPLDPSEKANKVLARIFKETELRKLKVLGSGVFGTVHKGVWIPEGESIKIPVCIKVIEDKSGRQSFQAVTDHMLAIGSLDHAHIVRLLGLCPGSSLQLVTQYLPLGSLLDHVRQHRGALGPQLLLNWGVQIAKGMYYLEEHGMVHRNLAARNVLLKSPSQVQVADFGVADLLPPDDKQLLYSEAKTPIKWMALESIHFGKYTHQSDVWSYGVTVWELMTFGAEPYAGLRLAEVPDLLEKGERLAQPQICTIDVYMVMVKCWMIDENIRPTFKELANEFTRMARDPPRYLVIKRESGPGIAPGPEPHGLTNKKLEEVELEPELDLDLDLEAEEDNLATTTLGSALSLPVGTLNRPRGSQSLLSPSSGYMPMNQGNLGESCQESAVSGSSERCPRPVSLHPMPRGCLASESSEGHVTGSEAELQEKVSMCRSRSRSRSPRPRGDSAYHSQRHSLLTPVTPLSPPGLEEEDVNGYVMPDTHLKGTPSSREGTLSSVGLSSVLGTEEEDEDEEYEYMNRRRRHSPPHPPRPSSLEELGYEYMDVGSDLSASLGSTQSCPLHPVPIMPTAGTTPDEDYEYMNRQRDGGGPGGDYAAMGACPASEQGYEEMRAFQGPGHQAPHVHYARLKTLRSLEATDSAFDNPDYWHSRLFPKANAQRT

Receptor tyrosine-protein kinase erbB-2, sequence (P70424 whole entry): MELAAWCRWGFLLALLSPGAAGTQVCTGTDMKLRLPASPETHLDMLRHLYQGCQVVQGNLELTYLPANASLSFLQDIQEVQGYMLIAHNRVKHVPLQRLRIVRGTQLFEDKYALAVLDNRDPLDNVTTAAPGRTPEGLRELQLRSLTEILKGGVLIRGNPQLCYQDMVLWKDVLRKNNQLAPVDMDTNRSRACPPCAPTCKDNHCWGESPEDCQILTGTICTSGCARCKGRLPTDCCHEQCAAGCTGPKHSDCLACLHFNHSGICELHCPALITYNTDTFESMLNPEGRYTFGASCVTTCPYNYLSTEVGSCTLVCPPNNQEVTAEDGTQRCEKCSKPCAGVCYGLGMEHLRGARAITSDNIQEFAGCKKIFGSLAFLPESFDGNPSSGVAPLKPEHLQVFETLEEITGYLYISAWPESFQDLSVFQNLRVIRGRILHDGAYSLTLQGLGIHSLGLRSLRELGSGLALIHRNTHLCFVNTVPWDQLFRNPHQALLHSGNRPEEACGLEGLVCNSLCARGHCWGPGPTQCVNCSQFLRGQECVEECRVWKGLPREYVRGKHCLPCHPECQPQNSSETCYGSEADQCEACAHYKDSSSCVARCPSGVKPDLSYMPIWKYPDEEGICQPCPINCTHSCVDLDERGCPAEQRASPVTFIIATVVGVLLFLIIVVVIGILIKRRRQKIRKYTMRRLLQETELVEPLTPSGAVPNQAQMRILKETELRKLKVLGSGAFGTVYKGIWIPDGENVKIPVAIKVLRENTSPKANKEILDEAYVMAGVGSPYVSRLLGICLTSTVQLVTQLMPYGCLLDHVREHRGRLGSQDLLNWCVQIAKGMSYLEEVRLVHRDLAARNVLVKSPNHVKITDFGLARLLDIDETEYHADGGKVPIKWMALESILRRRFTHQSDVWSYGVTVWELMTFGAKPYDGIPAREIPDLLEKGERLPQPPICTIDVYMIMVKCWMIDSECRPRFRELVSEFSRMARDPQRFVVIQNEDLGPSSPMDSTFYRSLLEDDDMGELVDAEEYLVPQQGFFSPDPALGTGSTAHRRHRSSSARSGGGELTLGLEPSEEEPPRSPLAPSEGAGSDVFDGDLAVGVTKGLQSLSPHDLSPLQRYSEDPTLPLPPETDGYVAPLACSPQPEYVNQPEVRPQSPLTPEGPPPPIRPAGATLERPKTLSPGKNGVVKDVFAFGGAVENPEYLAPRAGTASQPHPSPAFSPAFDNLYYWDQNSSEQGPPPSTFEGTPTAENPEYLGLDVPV

In the case of `C#Cc1cccc(Nc2ncnc3cc(OCCOC)c(OCCOC)cc23)c1` [ERLOTINIB], the pIC50 (in general, the IC50 on a negative log10 scale, so that one unit is a factor of ten) in assay [1] was 6.52.
For the molecule `COc1cc2ncnc(Nc3ccc(F)c(Cl)c3)c2cc1OCCCN1CCOCC1` [GEFITINIB], the pIC50 in assay [1] is less than 6.30. Further, the result with NCI-H3255 was Active. In addition, the inhibition entry in assay [2] was “Active”.
